Data from patent publication US7049321B2, “Methods and pharmaceutical compositions for treatment of central and peripheral nervous system disorders and compounds useful therefor” (Israel Institute for Biological Research, priority 2002, dated 2006).

How the values were obtained:
[1] = molecular target: T1, M1 mAChR (Rattus norvegicus, UniProt P08482); test: α-APPs secretion in cell cultures stably transfected with the M1 mAChR; type: cell-based; settings: for Emax: read-out: APPs levels, % of maximal effect of carbachol, at 100 μm
T1 construct: expressed in transfected cells; elsewhere rat pheochromocytoma cells
T1 sequence (P08482 1-460): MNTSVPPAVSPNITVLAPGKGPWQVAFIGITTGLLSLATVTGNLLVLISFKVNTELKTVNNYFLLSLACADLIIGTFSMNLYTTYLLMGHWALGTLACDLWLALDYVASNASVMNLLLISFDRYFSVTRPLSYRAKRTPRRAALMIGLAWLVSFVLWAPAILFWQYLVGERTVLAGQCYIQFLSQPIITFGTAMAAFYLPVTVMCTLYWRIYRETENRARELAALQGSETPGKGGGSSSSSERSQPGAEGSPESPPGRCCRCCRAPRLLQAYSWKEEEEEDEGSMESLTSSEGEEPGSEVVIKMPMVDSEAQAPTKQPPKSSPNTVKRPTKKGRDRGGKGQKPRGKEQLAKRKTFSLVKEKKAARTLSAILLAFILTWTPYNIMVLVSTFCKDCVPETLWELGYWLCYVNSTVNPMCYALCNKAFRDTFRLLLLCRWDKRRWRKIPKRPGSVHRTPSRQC
Experimental: Cells were plated in 6 well culture plates and used at the age of 3–5 days after plating. […] Cells exposed to medium alone are referred as controls.
Cell supernatants were collected into Eppendorff tubes containing a cocktail of protease inhibitors (5 units/ml aprotinin, […], […] and 10^−4M Phenylmethylsulfonylfluoride (PMSF, a protease inhibitor); Sigma, USA). The collected media were concentrated with Centricon tubes (Amicon, Beverly, Mass., USA) and kept frozen for α-APPs secretion determination. Equal amounts of protein (50–100 μg) were loaded and separated on 10% sodium dodecyl sulfate-polyacrylamide gel electrophoresis (SDS-PAGE). Followed by western blotting onto nitrocellulose membrane, blocked by fat-free milk, and probed for 24 hours at 4° C., with anti-Alzheimer's precursor protein, A4 monoclonal antibody 22C11 (0.25 μg/ml; Boehringer Mannheim, Germany). The nitrocellulose membranes were washed and incubated for 2 hours at room temperature with peroxidase-linked goat anti-mouse IgG antibodies (Jackson Immunoresearch, USA), followed by extensive washout and staining with enhanced chemiluminescence detection system (Amersham). Quantitative evaluation of the immunoreactive bands, on the exposed films, was performed by video-imaging densitometry (Gel-aid software; Galai Co., Israel). APPs levels were expressed as x-fold increase over basal levels.

[2] = system: Rat pheochromocytoma cells transfected with M1 mAChR; type: cell-based; settings: β-A25-35 (10 & 20 μM)
Experimental: Confluent rat pheochromocytoma cells transfected with the M1 mAChR cultures were detached with trypsin, washed and plated in 24-well, 6-well, 60-mm or 100-mm plates that were precoated with rat tail collagen (Sigma, Israel). Several experiments were performed in serum-free medium. For 3-(4,5-dimethylthiazol-2-yl)-2,5-diphenyl-tetrazolium bromide (MTT) assay, cells (1.5×10^4) were plated in 96-well collagen-precoated plates, in serum-free medium, with or without various drugs for 24 hours. For differentiation, cells were grown in the presence of 1% FCS and 1% HS, with addition of 50 ng/ml NGF for 7 days, to cause full differentiation. […] After 7 days, cells were washed and the medium was either replaced to serum-free, or cells were detached and replated in serum-free medium. Cells in serum-free medium were treated either with Aβ peptides that were previously “aged” or with H2O2. Tested compounds were added together with the insults for the indicated time, unless otherwise stated.
Cells were plated in 96-well plates in 100 μl medium. After exposure to various treatments, 10 μl of 5 mg/ml MTT [3-(4,5-dimethylthiazol-2-yl)-2,5-diphenyl-tetrazolium bromide; Sigma, Israel] solution in phosphate-buffered saline (PBS) was added to each well. Plates were incubated for 2 hrs at 37° C. followed by hydrocholoric acid-isopropanol addition (100 μl of 0.04N HCl/isopropanol). Plates were read using ELISA reader at a wavelength of 570 nm.
The MTT assay measures primary early changes within the cells, reflecting the integrity of the electron transport chain and provides a readout of cellular redox activity. This test is a specific, early indicator of the mechanism of β-amyloid-mediated cell death and can be used to detect rapid inhibitory response.

[3] = system: Rat pheochromocytoma cells transfected with M1 mAChR; test: Neurite outgrowth response; type: cell-based; settings: blocked by atropine
Experimental: Rat pheochromocytoma cells transfected with M1 mAChR cells were grown as described in Gurwitz et al, (NeuroReport 6, 485,1995). For determination of neurite outgrowth, cells plated in six-well plates were used 3–5 days after-plating. Growth factors were added 1 day after plating and muscarinic agonists were added for the last 24 hrs.
Cells were observed under an inverted microscope. The percent of cells with neurite longer than cell diameter were scored in three random fields of several hundred cells from each well. Results were expressed as a percent of cells with neurites. Treatments were performed in triplicate cells. Both NGF (50 ng/ml) and EGF (100 ng/ml) were added 1 day after plating. Muscarinic agonists were added 24 hours before scoring.

[4] = system: tau proteins; test: tau phosphorylation, AT8 immunoblot; type: cell-based; settings: 100 μM; to the control level
Text: Following the experimental design of Sadot et al., J. Neurochem. […] By linking an M1 agonist to an antioxidant moiety tau phophorylation may be decreased, providing a new therapeutic strategy in a variety of CNS disease states due to combined damage due to oxidative stress and tau hyperphosphorylation.

[5] = system: trihexyphenidyl rats; test: Passive avoidance in trihexyphenidyl-treated rats; type: in vivo, Wistar rats; settings: 24 h
Text: Trihexyphenidyl is a selective M1 muscarinic antagonist that crosses the blood brain barrier and induces memory and learning impairments (Bymaster et al. J Pharmacol Exp Ther 267: 16–24, 1993. Roldan et al Neurosci. Lett. 230: 93–96, 1997; Kimura et al Brain Res. 834: 6–12, 1999).
Naive Wistar rats were used in the experiments below. The passive avoidance (PA) task is comprised of training (acquisition) phase and a retention phase. In the training procedure each rat was individually placed in the small illuminated compartment and after 60 sec. of familiarization/adaptation, the door to the large compartment was opened and the latency to enter was measured (Initial Latency). Immediately following entry into the dark compartment, the door was closed and inescapable foot shock (0.6 mA for 3 sec) was delivered through the grid floor. A cutoff point of 180 sec was used for initial latency. […] After the acquisition trial the rat was returned to its home cage. Retention of the passive avoidance task was measured 24 h later, by again placing the rat in the light compartment and after a 60 sec adaptation interval, the door was opened and the latency to re-enter the dark compartment was measured. A cutoff point of 300 sec was used for retention latency.

[6] = system: ApoE; test: ApoE synthesis and secretion in primary type 1 astrocytes; type: cell-based, rat; settings: up to 96 hrs
Experimental: Primary cultures of type 1 astrocytes were derived from the cortex of Sprague Dawley rats. The compounds tested were dissolved in the culture media and added to cells for 24, 48, 72 and 96 hrs. Media was then removed and kept frozen until ApoE protein levels were evaluated by immunoblot analysis as described in Poirier et al Neuroscience 55: 81–90 (1993). Alternatively the methods of Cedazo-Minuez et al [Neurosci 105: 651–661, 2001} may be employed.

[7] = system: C57BL6J mice; test: Morris water maze in normal hippocampus mice; type: in vivo; settings: for Reversal test, escape latency: AF150(S) 0.5 mg/kg; for Training, path length: AF150(S) only the higher dose; for Reversal test, swimming speed: AF150(S)-0.5 mg/kg, AF267B-1 mg/kg, rivastigmine, nicotine; for Training, swimming speed: mouse, in vivo
Experimental: (§1) Each group of mice was randomly divided into 7 treatment groups (n=12-14/group). […] All tested compounds and saline were administered once a day for 4 days before starting the behavioral testing, and then for the duration of the 5-day experiment, 30 minutes before testing.
(§2) Training: Each mouse was trained for four consecutive days, four trials (one block) per day, in which the platform position remained constant and was located in the center of the southeast quadrant of the pool. Within each block of four trials, each mouse started at each of the starting locations, but the sequence of locations was randomly selected. A trial consisted of placing a mouse by hand into the water facing the wall of the pool at one of four starting locations, north, south, east or west, around the pool's perimeter. Escape latency (the time to find the platform), path length (the distance traveled by the mouse) and speed (the swimming rate of the mouse) were recorded on each trial by the monitoring system.
(§3) For each mouse, the path length, escape latency, and swimming speed of the four trials on each of the 4 training days were grouped into blocks (one block for each day). […] Specific comparisons were performed, using the simple main effects contrasts acalysis, which is specifically suited for testing significant interactions.
(§4) Transfer test. During trial No. 17, on the fourth day, the platform was entirely removed from the pool (a probe trial). In this trial, the mouse was placed into the water for a limited period (30 s), and its spatial bias was measured by recording the relative distribution of escape latency and path length over the four quadrants of the pool.
(§5) Reversal test. During trials 18–21, on the fifth day, the platform position was changed to the northwest quadrant, opposite to the training quadrant. Thus, during reversal learning, the platform location was moved relative to the configuration of objects within the room, but the pool occupied the same place within the room throughout the entire experiment. Testing of the rats and measures taken were the same as in training.
(§6) For each mouse, the escape latency, path length and swimming speed of the reversal test (trials No. 18–21) were grouped into one block.

[8] = system: C57BL/10SnJ (B10) mice; test: Morris water maze in small hippocampus mice; type: in vivo; settings: for Training, escape latency: 0.5 and 1 mg/kg i.p. (rivastigmine, nicotine 1 mg/kg); for Training, path length: AF150(S) both doses, AF267B the higher dose; for Reversal test, escape latency / Training, swimming speed / Transfer test, spatial bias: mouse, in vivo
Experimental: C57BL/10SnJ (B10) mice were selected due to their small hippocampi and decreased number of hippocampal pyramidal neurons; the cell loss seemed to be associated with poor spatial learning.
as §1, §2, §3, §4, §5, §6

## CCC1SC2(CCN(C)CC2)NC1=O (racemic) [AF267, 2-ethyl-8-methyl-1-thia-4,8-diaza-spiro[4.5]decan-3-one]
[1]
  α-APPs secretion, comparison in words: AF267B is more efficacious and more potent than its racemate

## CCC1SC2(CCN(C)CC2)N(C(=O)CCc2c[nH]c3ccccc23)C1=O (racemic) [AF704, 2-Ethyl-4-(3-1H-indol-3-yl-propionyl)-8-methyl-1-thia-4,8-diaza-spiro[4.5]decan-3-one]
[2]
  Protection against β-A25-35-induced cytotoxicity: more effective than carbachol and AF267B
[3]
  Neurotrophic effect: neurotrophic
[4]
  tau phosphorylation (AT8): induce dephosphorylation of tau proteins
[1]
  Emax: 50%
[5]; 0.1 mg/kg, po
  Retention latency: 214.70 ± 36.63 s
[5]; 0.5 mg/kg p.o.
  Retention latency: 283.50 ± 17.39 s
[5]; 1 mg/kg p.o.
  Retention latency: 274.44 ± 26.97 s

## CC1OC2(CS1)CN1CCC2CC1 (stereo not drawn) [AF102B, reference compound]
[6]
  ApoE production: inactive
[5]; 1 mg/kg p.o.
  Retention latency: 234.4 ± 35.3 s

## CC[C@@H]1SC2(CCN(C)CC2)N(S(=O)(=O)c2ccc(F)cc2)C1=O [AF700, (S)-2-Ethyl-4-(4-fluoro-benzenesulfonyl)-8-methyl-1-thia-4,8-diaza-spiro[4.5]decan-3-one]
[2]
  Protection against β-A25-35-induced cytotoxicity: more effective than carbachol and AF267B
[3]
  Neurotrophic effect: neurotrophic
[1]
  Emax: 50%

## CCC1SC2(CCN(C)CC2)N(CCc2c[nH]c3ccccc23)C1=O (stereo not drawn) [AF703, 2-Ethyl-4-[2-(1H-indol-3-yl)-ethyl]-8-methyl-1-thia-4,8-diaza-spiro[4.5]decan-3-one]
[2]
  Protection against β-A25-35-induced cytotoxicity: more effective than carbachol and AF267B

## CN1CCCC1c1cccnc1 (stereo not drawn) [nicotine, reference compound]
[7]; 0.5 and 1 mg/kg i.p. (rivastigmine, nicotine 1 mg/kg)
  Training, escape latency: degraded the performance
[7]
  Reversal test, escape latency: no significant effect
  Training, path length: no significant effect
  Reversal test, swimming speed: significantly decreased
  Training, swimming speed: significantly decreased the swimming speed
[8]
  Training, escape latency: no improving effect
  Training, path length: no significant effect
  Reversal test, escape latency: no significant effect
  Training, swimming speed: Neither rivastigmine nor nicotine had any significant effect
  Transfer test, spatial bias: partial spatial bias

## CCN(C)C(=O)Oc1cccc([C@H](C)N(C)C)c1 [rivastigmine, reference compound]
[7]
  Reversal test, escape latency: no significant effect
  Training, path length: neither AF267B nor rivastigmine had any effect
  Reversal test, swimming speed: significantly decreased
  Training, swimming speed: significantly decreased the swimming speed
[8]
  Training, escape latency: positively affected
  Training, path length: positively affected
  Reversal test, escape latency: no significant effect
  Training, swimming speed: Neither rivastigmine nor nicotine had any significant effect
  Transfer test, spatial bias: complete spatial bias
[1]
  α-APPs secretion, comparison in words: not effective

## (S)-Ethyl-4-(3-1H-indol-3-yl-propionyl)-8-methyl-1-thia-4,8-diaza-spiro[4.5]decan-3-one [AF704B]
[2]
  Protection against β-A25-35-induced cytotoxicity: more effective than carbachol and AF267B
[4]
  tau phosphorylation (AT8): induce dephosphorylation of tau proteins
